The values that follow are results of earlier work, collected in patent US10603349B2, “Method for preparing pharmaceutical compositions of rhizomes from Alpinia galanga or Alpinia conchigera having a high content of 1′S-1′-acetoxychavicol acetate (ACA)” (NERTHUS APS, priority 2013, dated 2020).

Each structure is given as a SMILES string.

This data set has as its system whole-body insulin resistance. The note with it: fructose-induced rat model of metabolic syndrome.

`O=c1c(O)c(-c2ccccc2)oc2cc(O)cc(O)c12` [Galangin, galangin]: the “Blood glucose and insulin levels” value is listed as “dose-dependently normalized”.
